From PMC7864197, “High-Content Analysis-Based Sensitivity Prediction and Novel Therapeutics Screening for c-Met-Addicted Glioblastoma” (Cancers, 2021)

Target: c-Met (MET kinase) (Homo sapiens, UniProt P08581)
Assay: ADP-Glo MET kinase enzyme system (in vitro kinase assay)
Type: biochemical

Chain of c-Met (MET kinase) (P08581 25-307): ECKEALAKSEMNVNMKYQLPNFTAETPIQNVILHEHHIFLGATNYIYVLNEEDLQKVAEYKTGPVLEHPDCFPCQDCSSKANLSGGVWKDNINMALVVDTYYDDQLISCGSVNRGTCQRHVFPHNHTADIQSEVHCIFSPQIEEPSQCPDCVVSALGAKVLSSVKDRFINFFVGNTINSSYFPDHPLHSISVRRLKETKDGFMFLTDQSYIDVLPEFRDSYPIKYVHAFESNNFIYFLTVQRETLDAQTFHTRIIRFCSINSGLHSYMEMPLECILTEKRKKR
Chain of c-Met (MET kinase) (P08581 308-1390): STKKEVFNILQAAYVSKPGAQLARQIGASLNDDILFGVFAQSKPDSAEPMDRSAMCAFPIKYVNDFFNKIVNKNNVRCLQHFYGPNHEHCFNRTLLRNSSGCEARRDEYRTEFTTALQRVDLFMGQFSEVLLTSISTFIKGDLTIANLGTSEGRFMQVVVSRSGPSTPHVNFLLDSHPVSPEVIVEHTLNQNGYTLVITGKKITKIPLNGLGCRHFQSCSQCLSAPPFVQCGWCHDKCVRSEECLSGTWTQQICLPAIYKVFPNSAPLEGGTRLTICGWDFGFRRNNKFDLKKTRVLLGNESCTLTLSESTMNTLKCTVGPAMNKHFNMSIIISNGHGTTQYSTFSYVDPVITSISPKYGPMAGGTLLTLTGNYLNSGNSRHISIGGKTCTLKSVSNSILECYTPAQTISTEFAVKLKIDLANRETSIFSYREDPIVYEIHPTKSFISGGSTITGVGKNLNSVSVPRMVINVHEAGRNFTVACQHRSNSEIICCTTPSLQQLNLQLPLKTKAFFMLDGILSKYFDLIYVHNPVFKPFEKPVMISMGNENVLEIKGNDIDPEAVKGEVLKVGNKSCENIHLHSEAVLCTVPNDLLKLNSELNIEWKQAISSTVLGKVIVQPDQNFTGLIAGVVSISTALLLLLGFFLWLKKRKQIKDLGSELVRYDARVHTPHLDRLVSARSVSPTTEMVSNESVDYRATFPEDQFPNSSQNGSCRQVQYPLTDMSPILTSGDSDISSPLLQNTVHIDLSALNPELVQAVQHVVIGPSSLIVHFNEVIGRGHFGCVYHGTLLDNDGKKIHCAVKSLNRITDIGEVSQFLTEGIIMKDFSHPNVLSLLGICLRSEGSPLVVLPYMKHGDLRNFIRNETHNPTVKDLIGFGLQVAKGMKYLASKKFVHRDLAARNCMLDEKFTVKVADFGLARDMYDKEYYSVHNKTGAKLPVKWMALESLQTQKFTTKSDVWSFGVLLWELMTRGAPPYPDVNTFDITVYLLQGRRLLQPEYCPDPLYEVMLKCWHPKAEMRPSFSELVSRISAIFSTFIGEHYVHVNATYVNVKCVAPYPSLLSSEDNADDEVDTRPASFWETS

SMILES: CCN1CCN(Cc2ccc(Nc3ncc(F)c(-c4cc(F)c5nc(C)n(C(C)C)c5c4)n3)nc2)CC1 [Abemaciclib]
- ADP-Glo MET kinase enzyme system (in vitro kinase assay): abemaciclib was shown to inhibit kinase activity of c-Met at high concentrations
